Reference: the NIST ThermoML archive (doi:10.1021/je100256w)
Numbers after ± are expanded uncertainties.

Test: cn = amount concentration of the nth substance listed, in mol/dm3
Conditions: 101 kPa, Liquid, Dip Cell

SMILES: Cc1ccc(S(=O)(=O)[O-])cc1.[Na+] [sodium p-toluenesulfonate] + O
- electrical conductivity (298 K, c1 = 1.98e-05): 1.97e-05 ± 1.8e-07 S/m
- electrical conductivity (298 K, c1 = 3.92e-05): 3.417e-05 ± 2.4e-07 S/m
- electrical conductivity (298 K, c1 = 5.83e-05): 4.83e-05 ± 5.3e-07 S/m
- electrical conductivity (298 K, c1 = 7.69e-05): 6.1e-05 ± 7.5e-07 S/m
- electrical conductivity (298 K, c1 = 9.52e-05): 7.34e-05 ± 9.9e-07 S/m
- electrical conductivity (298 K, c1 = 0.0001132): 8.47e-05 ± 1.3e-06 S/m
- electrical conductivity (298 K, c1 = 0.0001308): 9.61e-05 ± 1.7e-06 S/m
- electrical conductivity (298 K, c1 = 0.0001481): 0.000107 ± 2e-06 S/m
- electrical conductivity (298 K, c1 = 0.0001651): 0.000117 ± 2.4e-06 S/m
- electrical conductivity (298 K, c1 = 0.0001818): 0.000127 ± 2.5e-06 S/m
- electrical conductivity (298 K, c1 = 0.0001982): 0.000137 ± 2.5e-06 S/m
- electrical conductivity (298 K, c1 = 0.0002143): 0.000147 ± 2.9e-06 S/m
- electrical conductivity (298 K, c1 = 0.0002456): 0.000164 ± 3.3e-06 S/m
- electrical conductivity (298 K, c1 = 0.0002609): 0.00017 ± 3.4e-06 S/m
- electrical conductivity (298 K, c1 = 0.0002759): 0.00018 ± 3.5e-06 S/m
- electrical conductivity (298 K, c1 = 0.0002906): 0.0001884 ± 1.2e-06 S/m
- electrical conductivity (298 K, c1 = 0.0003051): 0.0001964 ± 1.3e-06 S/m
- electrical conductivity (298 K, c1 = 0.0003193): 0.000203 ± 2.2e-06 S/m
- electrical conductivity (298 K, c1 = 0.0003333): 0.000196 ± 3.2e-06 S/m
- electrical conductivity (298 K, c1 = 0.0003471): 0.000201 ± 4.5e-06 S/m
- electrical conductivity (298 K, c1 = 0.0003673): 0.000206 ± 4.7e-06 S/m
- electrical conductivity (298 K, c1 = 0.0003871): 0.000219 ± 4.7e-06 S/m
- electrical conductivity (298 K, c1 = 0.0004064): 0.000228 ± 4.8e-06 S/m
- electrical conductivity (298 K, c1 = 0.0004252): 0.000236 ± 5e-06 S/m
- electrical conductivity (298 K, c1 = 0.0004436): 0.000242 ± 5.2e-06 S/m
- electrical conductivity (298 K, c1 = 0.0004615): 0.000249 ± 4.9e-06 S/m
- electrical conductivity (298 K, c1 = 0.0004791): 0.000258 ± 5.3e-06 S/m
- electrical conductivity (298 K, c1 = 0.0004962): 0.000265 ± 5.9e-06 S/m
- electrical conductivity (298 K, c1 = 0.000513): 0.000271 ± 6.1e-06 S/m
- electrical conductivity (303 K, c1 = 1.98e-05): 1.898e-05 ± 1.2e-07 S/m
- electrical conductivity (303 K, c1 = 3.92e-05): 3.49e-05 ± 4.9e-07 S/m
- electrical conductivity (303 K, c1 = 5.83e-05): 5.03e-05 ± 7.2e-07 S/m
- electrical conductivity (303 K, c1 = 7.69e-05): 6.43e-05 ± 1.1e-06 S/m
- electrical conductivity (303 K, c1 = 9.52e-05): 7.77e-05 ± 1.5e-06 S/m
- electrical conductivity (303 K, c1 = 0.0001132): 9.1e-05 ± 1.7e-06 S/m
- electrical conductivity (303 K, c1 = 0.0001308): 0.000104 ± 2e-06 S/m
- electrical conductivity (303 K, c1 = 0.0001481): 0.000117 ± 2.1e-06 S/m
- electrical conductivity (303 K, c1 = 0.0001651): 0.000129 ± 2.4e-06 S/m
- electrical conductivity (303 K, c1 = 0.0001818): 0.000139 ± 2.6e-06 S/m
- electrical conductivity (303 K, c1 = 0.0001982): 0.000149 ± 2.8e-06 S/m
- electrical conductivity (303 K, c1 = 0.0002143): 0.000161 ± 3e-06 S/m
- electrical conductivity (303 K, c1 = 0.0002456): 0.000179 ± 3.4e-06 S/m
- electrical conductivity (303 K, c1 = 0.0002609): 0.000188 ± 2.4e-06 S/m
- electrical conductivity (303 K, c1 = 0.0002759): 0.000196 ± 2.3e-06 S/m
- electrical conductivity (303 K, c1 = 0.0002906): 0.000192 ± 2.3e-06 S/m
- electrical conductivity (303 K, c1 = 0.0003051): 0.0002 ± 2.5e-06 S/m
- electrical conductivity (303 K, c1 = 0.0003193): 0.000208 ± 2.7e-06 S/m
- electrical conductivity (303 K, c1 = 0.0003333): 0.000215 ± 4.2e-06 S/m
- electrical conductivity (303 K, c1 = 0.0003471): 0.000222 ± 4.4e-06 S/m
- electrical conductivity (303 K, c1 = 0.0003673): 0.000232 ± 5e-06 S/m
- electrical conductivity (303 K, c1 = 0.0003871): 0.000241 ± 4.9e-06 S/m
- electrical conductivity (303 K, c1 = 0.0004064): 0.000251 ± 5e-06 S/m
- electrical conductivity (303 K, c1 = 0.0004252): 0.000259 ± 5.2e-06 S/m
- electrical conductivity (303 K, c1 = 0.0004436): 0.000267 ± 5.5e-06 S/m
- electrical conductivity (303 K, c1 = 0.0004615): 0.000274 ± 5.6e-06 S/m
- electrical conductivity (303 K, c1 = 0.0004791): 0.000283 ± 5.6e-06 S/m
- electrical conductivity (303 K, c1 = 0.0004962): 0.000293 ± 5.9e-06 S/m
- electrical conductivity (303 K, c1 = 0.000513): 0.0003 ± 6.2e-06 S/m
- electrical conductivity (308 K, c1 = 1.98e-05): 2.03e-05 ± 3.8e-07 S/m
- electrical conductivity (308 K, c1 = 3.92e-05): 3.87e-05 ± 7.9e-07 S/m
- electrical conductivity (308 K, c1 = 5.83e-05): 5.5e-05 ± 1.1e-06 S/m
- electrical conductivity (308 K, c1 = 7.69e-05): 7.18e-05 ± 1.6e-06 S/m
- electrical conductivity (308 K, c1 = 9.52e-05): 8.74e-05 ± 2e-06 S/m
- electrical conductivity (308 K, c1 = 0.0001132): 0.000101 ± 2.3e-06 S/m
- electrical conductivity (308 K, c1 = 0.0001308): 0.000115 ± 2.5e-06 S/m
- electrical conductivity (308 K, c1 = 0.0001481): 0.000127 ± 2.7e-06 S/m
- electrical conductivity (308 K, c1 = 0.0001651): 0.00014 ± 2.8e-06 S/m
- electrical conductivity (308 K, c1 = 0.0001818): 0.000152 ± 3.1e-06 S/m
- electrical conductivity (308 K, c1 = 0.0001982): 0.000164 ± 3.4e-06 S/m
- electrical conductivity (308 K, c1 = 0.0002143): 0.000175 ± 3.5e-06 S/m
- electrical conductivity (308 K, c1 = 0.0002456): 0.000196 ± 2.7e-06 S/m
- electrical conductivity (308 K, c1 = 0.0002609): 0.000192 ± 2.8e-06 S/m
- electrical conductivity (308 K, c1 = 0.0002759): 0.000201 ± 3e-06 S/m
- electrical conductivity (308 K, c1 = 0.0002906): 0.000209 ± 4.4e-06 S/m
- electrical conductivity (308 K, c1 = 0.0003051): 0.000219 ± 4.4e-06 S/m
- electrical conductivity (308 K, c1 = 0.0003193): 0.000228 ± 4.6e-06 S/m
- electrical conductivity (308 K, c1 = 0.0003333): 0.000236 ± 4.6e-06 S/m
- electrical conductivity (308 K, c1 = 0.0003471): 0.000243 ± 4.9e-06 S/m
- electrical conductivity (308 K, c1 = 0.0003673): 0.000254 ± 5.2e-06 S/m
- electrical conductivity (308 K, c1 = 0.0003871): 0.000267 ± 5.4e-06 S/m
- electrical conductivity (308 K, c1 = 0.0004064): 0.000276 ± 5.6e-06 S/m
- electrical conductivity (308 K, c1 = 0.0004252): 0.000286 ± 5.8e-06 S/m
- electrical conductivity (308 K, c1 = 0.0004436): 0.000295 ± 6.1e-06 S/m
- electrical conductivity (308 K, c1 = 0.0004615): 0.000304 ± 6.4e-06 S/m
- electrical conductivity (308 K, c1 = 0.0004791): 0.000313 ± 6.1e-06 S/m
- electrical conductivity (308 K, c1 = 0.0004962): 0.000321 ± 6e-06 S/m
- electrical conductivity (308 K, c1 = 0.000513): 0.00033 ± 6.2e-06 S/m
- electrical conductivity (313 K, c1 = 1.98e-05): 2.26e-05 ± 4.7e-07 S/m
- electrical conductivity (313 K, c1 = 3.92e-05): 4.25e-05 ± 7.3e-07 S/m
- electrical conductivity (313 K, c1 = 5.83e-05): 6.1e-05 ± 1.3e-06 S/m
- electrical conductivity (313 K, c1 = 7.69e-05): 7.97e-05 ± 1.5e-06 S/m
- electrical conductivity (313 K, c1 = 9.52e-05): 9.66e-05 ± 1.9e-06 S/m
- electrical conductivity (313 K, c1 = 0.0001132): 0.000113 ± 2.4e-06 S/m
- electrical conductivity (313 K, c1 = 0.0001308): 0.000128 ± 2.6e-06 S/m
- electrical conductivity (313 K, c1 = 0.0001481): 0.000142 ± 3.1e-06 S/m
- electrical conductivity (313 K, c1 = 0.0001651): 0.000156 ± 3.4e-06 S/m
- electrical conductivity (313 K, c1 = 0.0001818): 0.000169 ± 3.5e-06 S/m
- electrical conductivity (313 K, c1 = 0.0001982): 0.000181 ± 3.6e-06 S/m
- electrical conductivity (313 K, c1 = 0.0002143): 0.000194 ± 3.3e-06 S/m
- electrical conductivity (313 K, c1 = 0.0002456): 0.000203 ± 2.2e-06 S/m
- electrical conductivity (313 K, c1 = 0.0002609): 0.000214 ± 4.5e-06 S/m
- electrical conductivity (313 K, c1 = 0.0002759): 0.000224 ± 4.7e-06 S/m
- electrical conductivity (313 K, c1 = 0.0002906): 0.000234 ± 5e-06 S/m
- electrical conductivity (313 K, c1 = 0.0003051): 0.000242 ± 4.9e-06 S/m
- electrical conductivity (313 K, c1 = 0.0003193): 0.000253 ± 5e-06 S/m
- electrical conductivity (313 K, c1 = 0.0003333): 0.00026 ± 5.1e-06 S/m
- electrical conductivity (313 K, c1 = 0.0003471): 0.000269 ± 5.3e-06 S/m
- electrical conductivity (313 K, c1 = 0.0003673): 0.000281 ± 5.6e-06 S/m
- electrical conductivity (313 K, c1 = 0.0003871): 0.000293 ± 5.5e-06 S/m
- electrical conductivity (313 K, c1 = 0.0004064): 0.000305 ± 5.9e-06 S/m
- electrical conductivity (313 K, c1 = 0.0004252): 0.000315 ± 6.1e-06 S/m
- electrical conductivity (313 K, c1 = 0.0004436): 0.000326 ± 6.4e-06 S/m
- electrical conductivity (313 K, c1 = 0.0004615): 0.000336 ± 6.5e-06 S/m
- electrical conductivity (313 K, c1 = 0.0004791): 0.000342 ± 6.2e-06 S/m
- electrical conductivity (313 K, c1 = 0.0004962): 0.00035 ± 6.2e-06 S/m
- electrical conductivity (313 K, c1 = 0.000513): 0.000359 ± 6.1e-06 S/m
